From ChEMBL document CHEMBL3399996, “Marine natural products as inhibitors of cystathionine beta-synthase activity” (Bioorg Med Chem Lett, 2015)

Target: T1, Cystathionine beta-synthase (Homo sapiens, UniProt P35520)
T1 sequence (P35520 whole entry): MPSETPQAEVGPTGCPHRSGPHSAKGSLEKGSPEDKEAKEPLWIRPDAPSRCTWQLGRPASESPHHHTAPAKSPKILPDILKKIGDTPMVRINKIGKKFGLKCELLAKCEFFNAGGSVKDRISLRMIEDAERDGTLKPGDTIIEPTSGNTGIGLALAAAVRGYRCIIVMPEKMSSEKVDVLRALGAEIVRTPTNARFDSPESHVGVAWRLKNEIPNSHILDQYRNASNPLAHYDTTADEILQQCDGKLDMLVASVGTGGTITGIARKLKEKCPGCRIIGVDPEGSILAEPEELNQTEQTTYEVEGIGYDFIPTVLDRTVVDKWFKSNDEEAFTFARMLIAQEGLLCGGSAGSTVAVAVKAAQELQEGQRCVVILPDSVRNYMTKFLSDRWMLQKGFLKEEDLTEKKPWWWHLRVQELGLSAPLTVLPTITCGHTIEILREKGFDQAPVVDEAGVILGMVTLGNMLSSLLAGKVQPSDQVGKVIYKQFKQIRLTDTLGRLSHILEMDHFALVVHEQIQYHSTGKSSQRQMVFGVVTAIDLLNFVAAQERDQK
Assay: Inhibition of full-length wild-type cystathionine beta-synthase (unknown origin) assessed as inhibition of H2S production by fluorescence assay in presence of S-adenosylmethionine

Row | Structure (SMILES) | IC50 [µM]
1 | O=C1NC(=S)N/C1=C\c1ccccc1 | 170
2 | O=C1NC(=S)N/C1=C\c1ccc(O)c(O)c1 | 125
3 | COc1cc(/C=C2\NC(=S)NC2=O)ccc1O | 187
4 | COc1cc(/C=C2\NC(=S)NC2=O)ccc1OC(C)=O | 83
5 | COc1cc(/C=C2\N=C(SC)N(C)C2=O)ccc1O | 87
6 | C[C@@]12CCC(=O)c3coc(c31)C(=O)c1cc3cccc(OS(=O)(=O)O)c3cc12 | 136
7 | NC(=O)c1cc(Br)c(Br)[nH]1 | 156
8 | O=C1C=C(c2cc(Br)c(O)c(Br)c2)/C(=C/c2cc(Br)c(O)c(Br)c2)O1 [RUBROLIDE A] | 108
